Paper PMC5834492, “Antimycobacterial drug discovery using Mycobacteria-infected amoebae identifies anti-infectives and new molecular targets” (Scientific Reports, 2018)
“Also recorded” adds a separate entry of the source.

Columns and labels:
[1] = tested on: D. discoideum GFP-ABD; conditions: for D. discoideum GFP-ABD normalised growth, control=1.00, mean: 10 µM
[2] = tested on: M. bovis BCG pMV261 (empty plasmid); format: cell-based, Mycobacterium bovis BCG
[3] = tested on: M. bovis BCG pMV261-murC; format: cell-based, Mycobacterium bovis BCG
[4] = tested on: Mtb H37Rv; parameters: method as in Sorrentino et al, 2015; conditions: ref Sorrentino et al, 2015; cited from earlier work
[5] = tested on: M. marinum in A. castellanii; format: cell-based, Mycobacterium marinum
[6] = tested on: M. marinum GFP; format: cell-based, Mycobacterium marinum; conditions: for M. marinum GFP normalised growth, control=1.00, mean: 10 µM, antibiotic assay; for antibiotic activity in M. marinum growth assay: broth
[7] = tested on: M. marinum in BV2 microglial cells; format: cell-based, Mycobacterium marinum
[8] = tested on: Mtb H37Rv in THP-1; parameters: method as in Sorrentino et al, 2015; conditions: ref Sorrentino et al, 2015, cited from earlier work; for Intracelullar MIC90 in THP-1: THP1 / Mtb H37Rv infection assay; for Extracellular MIC90/ Inracellular MIC90: ratio
[9] = tested on: M. marinum luxCDABE; format: cell-based, Mycobacterium marinum
[10] = not told; cited from earlier work
[11] = tested on: BV2 cells
[12] = tested on: M. bovis BCG pMV261-fbpA; format: cell-based, Mycobacterium bovis BCG

Cc1ccc2nc(C)c(-c3ccn(Cc4ccccc4)n3)n2c1 [GSK847920A]
D. discoideum GFP-ABD normalised growth, control=1.00, mean [1]: 0.34 | pXC50(1) [2]: 5.94 | pXC50(2) [2]: 5.99 | pIC50 Shift (1) [3]: 0.49 | pIC50 Shift (2) [3]: 0.54 | pXC50(1) [3]: 5.45 | pXC50(2) [3]: 5.45 | Extracellular MIC90 [4]: 5 µM | A. castellanii / M. marinum normalised growth, control=1.00, mean ([5]; 10 µM): 1.17 | M. marinum GFP normalised growth, control=1.00, mean [6]: 0.36 | antibiotic activity in M. marinum growth assay [6]: strong antibiotic activity | IC50 [7]: 3.29 µM | BV2 / M. marinum normalised growth, control=1.00, mean ([7]; 10 µM): 0.95 | Intracelullar MIC90 in THP-1 [8]: 1.85 µM | Extracellular MIC90/ Inracellular MIC90 [8]: 2.7 | M. marinum luxCDABE normalised growth, control=1.00, mean ([9]; 10 µM): 0.11

NCC[C@H](O)C(=O)N[C@@H]1C[C@H](N)[C@@H](O[C@H]2O[C@H](CN)[C@@H](O)[C@H](O)[C@H]2O)[C@H](O)[C@H]1O[C@H]1O[C@H](CO)[C@@H](O)[C@H](N)[C@H]1O [amikacin, reference compound]
effect of amikacin on intracellular mycobacteria growth [7]: has an effect on mycobacteria growth inside BV2 cells; also recorded: exerts a significant effect on intracellular bacteria | cellular permeability [10]: low cellular permeability

CC(C)(C)c1ccc(-c2nnc(SCC(=O)OC3CCCCC3)o2)cc1 [GW859039X]
Growth inhibition / Cytotoxicity assays: BV2 cells [11]: False | Growth inhibition / Cytotoxicity assays: D. discoideum GFP-ABD [1]: 0.68 | pXC50(1) [2]: 5.03 | pXC50(2) [2]: 5.04 | pIC50 Shift (1) [12]: 0.43 | pIC50 Shift (2) [12]: 0.42 | pXC50(1) [12]: 4.6 | pXC50(2) [12]: 4.62 | Extracellular MIC90 [4]: 1.7 µM | Intracellular infection assays: A. castellanii / M. marinum [5]: 0.90 | antibiotic activity in M. marinum growth assay [6]: strong antibiotic activity | Intracellular infection assays: BV2 / M. marinum [7]: 1.04 | Intracelullar MIC90 in THP-1 [8]: 5.55 µM | Extracellular MIC90/ Inracellular MIC90 [8]: 0.31 | Antibiotic assays: M. marinum luxCDABE [9]: 0.075

CC(C)OC(=O)COc1ccc(-c2cnc(N(C)CCc3ccncc3)nc2)cc1 [GSK831784A]
D. discoideum GFP-ABD normalised growth, control=1.00, mean [1]: 0.98 | pXC50(1) [2]: 4.96 | pXC50(2) [2]: 4.97 | pIC50 Shift (1) [3]: 0.32 | pIC50 Shift (2) [3]: 0.42 | pXC50(1) [3]: 4.64 | pXC50(2) [3]: 4.55 | A. castellanii / M. marinum normalised growth, control=1.00, mean ([5]; 10 µM): 0.20 | Hits A. castellanii/M. marinum assay True/False ([5]; 10 µM): TRUE | M. marinum GFP normalised growth, control=1.00, mean [6]: 0.10 | antibiotic activity in M. marinum growth assay [6]: strong antibiotic activity | IC50 [7]: 15 µM | BV2 / M. marinum normalised growth, control=1.00, mean ([7]; 10 µM): 0.97 | hit in BV2/M. marinum assay True/False ([7]; 10 µM): FALSE | M. marinum luxCDABE normalised growth, control = 1.00, mean ([9]; 10 µM): 0,00 | M. marinum luxCDABE normalised growth, control=1.00, mean ([9]; 10 µM): 0.00

COc1cc(Cc2cnc(N)nc2N)c2cnccc2c1N(C)C [GW360240X]
Growth inhibition / Cytotoxicity assays: BV2 cells [11]: False | Growth inhibition / Cytotoxicity assays: D. discoideum GFP-ABD [1]: 1.13 | Extracellular MIC90 [4]: 3 µM | Intracellular infection assays: A. castellanii / M. marinum [5]: 1.10 | Intracellular infection assays: BV2 / M. marinum [7]: 1.06 | Intracelullar MIC90 in THP-1 [8]: 50 µM | Extracellular MIC90/ Inracellular MIC90 [8]: 0.06 | Antibiotic assays: M. marinum luxCDABE [9]: 0.74
